Assay results taken from paper PMC9369295, “Key Residues Affecting Binding Affinity of Sirex noctilio Fabricius Odorant-Binding Protein (SnocOBP9) to Aggregation Pheromone” (International Journal of Molecular Sciences, 2022).
“Also recorded” adds a separate entry of the source. Like-named read-outs stand apart in the source and are kept apart here.

What was measured:
SnocOBP9WT = SnocOBP9WT (Sirex noctilio, UniProt A0A857N3E7); assay: Fluorescence competitive binding assay with 1-NPN probe, wild-type protein
Chain of SnocOBP9WT (A0A857N3E7 entry or part of it): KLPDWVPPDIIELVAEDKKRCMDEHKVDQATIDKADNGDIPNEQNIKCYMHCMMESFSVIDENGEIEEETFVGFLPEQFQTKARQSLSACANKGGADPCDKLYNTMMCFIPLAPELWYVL

SnocOBP9F71A = SnocOBP9F71A (Sirex noctilio, UniProt A0A857N3E7, F92A); assay: Fluorescence binding assay with 1-NPN probe, mutant F71A
Chain of SnocOBP9F71A (A0A857N3E7 entry or part of it F92A): as the sequence (A0A857N3E7 entry or part of it) above, with F71A counted along it
Excerpt: (§1) To measure the binding affinity of the ligand to recombinant SnocOBP9, 1-NPN was selected as a fluorescent probe. Eleven host volatiles ((−)-Limonene, (+)-Limonene, 3-Carene, Alpha-Pinene and Beta-Pinene, Camphene, Beta-Myrcene, Beta-Ocimene, Sabinene, Hexanal and Eucalyptol), three insect pheromones ((Z)-3-Decen-ol, (Z)-4-Decen-ol and (E, E)-2,4-decadienal) and six symbiotic fungal volatile (Cyclopentanone, Geraniol 2-Hexene, (−)-Globulol, Linalol and 1-(3-ethylphenyl)ethenone) compounds were selected to bind with recombinant SnocOBP9. A multi-scan Spectrum Molecular Device Spectra Max i3 Fluorescence Spectrophotometer (Thermo Scientific, Wilmington, DE, USA) was used to conduct fluorescence competitive binding assays with an excitation wavelength of 337 nm. The emission spectra were recorded between 390 and 500 nm. The parameters were selected such that the slit widths for both excitation and emission were 10 nm. […] Intensity values corresponding to the maximum fluorescence emission were plotted against the free ligand concentrations to calculate the dissociation constant. Assuming the activity of the protein was 100%, and the stoichiometric ratio between the protein and the ligand was 1:1 when saturated, the bound ligand was determined from the fluorescence intensity value. The K1-NPN value was calculated by linearizing the curve using Scatchard plots. […]

SnocOBP9L116A = SnocOBP9L116A (Sirex noctilio, UniProt A0A857N3E7, L137A); assay: Fluorescence binding assay with 1-NPN probe, mutant L116A
Chain of SnocOBP9L116A (A0A857N3E7 entry or part of it L137A): as the sequence (A0A857N3E7 entry or part of it) above, with L116A counted along it
Excerpt: as §1

SnocOBP9F57A = SnocOBP9F57A (Sirex noctilio, UniProt A0A857N3E7, F78A); assay: Fluorescence binding assay with 1-NPN probe, mutant F57A
Chain of SnocOBP9F57A (A0A857N3E7 entry or part of it F78A): as the sequence (A0A857N3E7 entry or part of it) above, with F57A counted along it
Excerpt: as §1

SnocOBP9M54A = SnocOBP9M54A (Sirex noctilio, UniProt A0A857N3E7, M75A); assay: Fluorescence binding assay with 1-NPN probe, mutant M54A
Chain of SnocOBP9M54A (A0A857N3E7 entry or part of it M75A): as the sequence (A0A857N3E7 entry or part of it) above, with M54A counted along it
Excerpt: as §1

SnocOBP9F74A = SnocOBP9F74A (Sirex noctilio, UniProt A0A857N3E7, F95A); assay: Fluorescence binding assay with 1-NPN probe, mutant F74A
Chain of SnocOBP9F74A (A0A857N3E7 entry or part of it F95A): as the sequence (A0A857N3E7 entry or part of it) above, with F74A counted along it
Excerpt: as §1

[1] = protein and 1-NPN both 2 μM, ligand titrated to 1–20 μM, read-out: IC50

Row | IC50 (SnocOBP9WT; [1]) [µM] | Compound | IC50 (SnocOBP9WT) [µM] | other results
1 | > 20 | CC=CCCC [2-Hexene] | – | –
2 | > 20 | O=C1CCCC1 [Cyclopentanone] | – | –
3 | – | CCCCCC=O [Hexanal] | > 20 | –
4 | – | CC1=CCC2CC1C2(C)C (stereo not drawn) [Alpha-Pinene] | > 20 | –
5 | > 20 | CCCCC/C=C\CCCO [(Z)-4-Decen-ol] | – | –
6 | > 20 | CC12CCC(CC1)C(C)(C)O2 [Eucalyptol] | – | –
7 | > 20 | C=C/C(C)=C/CC=C(C)C [Beta-Ocimene] | – | –
8 | – | c1ccc(Nc2cccc3ccccc23)cc1 [1-NPN, N-phenyl-1-naphthylamine, reference compound] | – | Kd (SnocOBP9F71A): 1.27 ± 2.42 µM; Kd (SnocOBP9L116A): 17.5 ± 2.41 µM; Kd (SnocOBP9F57A): 4.49 ± 0.82 µM; Kd (SnocOBP9M54A): 7.61 ± 0.92 µM; Kd (SnocOBP9F74A): 18.4 ± 1.66 µM; Kd (SnocOBP9WT): 6.87 ± 0.73 µM
9 | > 20 | C=C1CCC2(C(C)C)CC12 (stereo not shown) [Sabinene] | – | –
10 | – | C=CC(C)(O)CCC=C(C)C (stereo not shown) [Linalool] | > 20 | –
11 | > 20 | C=CC(=C)CCC=C(C)C [Beta-Myrcene] | – | –
12 | – | CC(C)=CCC/C(C)=C/CO [Geraniol] | > 20 | –
13 | > 20 | C=C1C2CCC(C2)C1(C)C (stereo not shown) [Camphene] | – | –
14 | > 20 | CCc1cccc(C(C)=O)c1 [1-(3-ethylphenyl)ethenone] | – | –
15 | > 20 | C[C@@H]1CC[C@@H]2[C@@H]1[C@H]1[C@@H](CC[C@@]2(C)O)C1(C)C [(−)-Globulol] | – | –
16 | > 20 | CCCCC/C=C/C=C/C=O [(E, E)-2,4-Decadienal] | – | –
17 | – | C=C(C)[C@@H]1CC=C(C)CC1 [(−)-Limonene] | 6.95 ± 0.61 | Ki (SnocOBP9WT): 5.5 ± 0.49 µM
18 | – | C=C1CCC2CC1C2(C)C (stereo not drawn) [Beta-Pinene] | > 20 | –
19 | – | C=C(C)[C@H]1CC=C(C)CC1 [(+)-Limonene] | 6.09 ± 1.43 | Ki (SnocOBP9WT): 4.87 ± 0.94 µM
20 | > 20 | CC1=CCC2C(C1)C2(C)C (stereo not shown) [3-Carene] | – | –

Row | Compound | IC50 (SnocOBP9WT; [1]) [µM] | IC50 (SnocOBP9WT) [µM] | other results
21 | CCCCCC/C=C\CCO [Z3D, (Z)-3-decen-ol] | 1.92 ± 0.14 | – | binding affinity (fluorescence competitive assay) (SnocOBP9F71A; mutant PHE71 to ALA, Ki could not be calculated): no binding affinity; also recorded: never decreased below 50%; binding affinity (fluorescence competitive assay) (SnocOBP9L116A; mutant LEU116 to ALA, Ki could not be calculated): no binding affinity; also recorded: never decreased below 50%; Ki (SnocOBP9F57A): 5.61 ± 0.5 µM; binding affinity (fluorescence competitive assay) (SnocOBP9M54A; mutant MET54 to ALA, Ki could not be calculated): no binding affinity; also recorded: never decreased below 50%; binding affinity (fluorescence competitive assay) (SnocOBP9F74A; mutant PHE74 to ALA, Ki could not be calculated): no binding affinity; also recorded: never decreased below 50%; Ki (SnocOBP9WT; protein and 1-NPN both 2 μM, ligand titrated to 1–20 μM, read-out: Ki): 1.53 ± 0.09 µM
